What was measured:
Test in all cases: Test B pre-/postemergence plant response
Type in all cases: in vivo
[1] = test system: common ragweed (Ambrosia elation)
Method in brief: (§1)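 Visual scoring from 0 (no effect) to 100 (complete control) against untreated controls was done 13 to 15 days after greenhouse treatment. Chemicals were formulated in a surfactant-containing non-phytotoxic solvent and applied to soil preemergence or to 1- to 4-leaf (2-18 cm) plants postemergence.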

[2] = test system: johnsongrass (Sorghum halepense)
Method in brief: as §1

[3] = test system: Italian ryegrass (Lolium multiflorum)
Method in brief: as §1

[4] = test system: wheat (Triticum aestivum)
Method in brief: as §1

[5] = test system: morningglory (Ipomoea coccinea)
Method in brief: as §1

[6] = test system: cocklebur (Xanthium strumarium); conditions: for Cocklebur plant response rating: 8 g ai/ha
Method in brief: as §1

[7] = test system: lambsquarters (Chenopodium album)
Method in brief: as §1

[8] = test system: surinam grass (Brachiaria decumbens)
Method in brief: as §1

[9] = test system: common (oilseed) sunflower (Helianthus annuus); conditions: Preemergence
Method in brief: as §1

[10] = test system: soybean (Glycine max); conditions: for Soybean plant response rating: postemergence, 0-100 scale; for Plant response rating, Soybean: Postemergence
Method in brief: as §1

[11] = test system: kochia (Kochia scoparia); conditions: for Kochia plant response rating: postemergence, 0-100 scale
Method in brief: as §1

[12] = test system: bermudagrass (Cynodon dactylon); conditions: for Bermudagrass plant response rating: 8 g ai/ha
Method in brief: as §1

[13] = test system: goosegrass (Eleusine indica)
Method in brief: as §1

[14] = test system: velvetleaf (Abutilon theophrasti)
Method in brief: as §1

[15] = 8 g ai/ha, postemergence, 0-100 scale
[16] = 16 g ai/ha, postemergence, 0-100 scale
[17] = Postemergence, 31 g ai/ha, scale 0 to 100
[18] = Postemergence, 62 g ai/ha, scale 0 to 100, 0 no effect, 100 complete control
[19] = Preemergence, 31 g ai/ha, scale 0 to 100 (0 no effect, 100 complete control)
[20] = Preemergence, 62 g ai/ha, 0 to 100 scale, 0 no effect, 100 complete control
[21] = Preemergence, 8 g ai/ha, scale 0 to 100
[22] = Preemergence, 16 g ai/ha, scale 0 to 100
[23] = Postemergence, 16 g ai/ha, scale 0 to 100
[24] = Preemergence, 16 g ai/ha, scale 0 to 100 (0 no effect, 100 complete control)
[25] = Preemergence, scale 0 to 100 (0 no effect, 100 complete control)
[26] = Postemergence, 31 g ai/ha, scale 0 to 100, 0 no effect, 100 complete control
[27] = Postemergence, 62 g ai/ha, scale 0 to 100
[28] = Preemergence, 62 g ai/ha, scale 0 to 100
[29] = Preemergence, 31 g ai/ha, 0 to 100 scale, 0 no effect, 100 complete control

Cc1cc(-c2ccc(Cl)cc2)nn1-c1c(OC(=S)N(C)C)cnn(C)c1=O [Compound 69]
Ragweed plant response rating [1, 15]: 0
Ragweed plant response rating [1, 16]: 0
Plant response rating, Ragweed [1, 17]: 0
Plant response rating, Ragweed [1, 18]: 0
Plant response rating, Ragweed [1, 19]: 100
Plant response rating, Ragweed [1, 20]: 100
Ragweed plant response rating [1, 21]: 0
Ragweed plant response rating [1, 22]: 98
Johnsongrass plant response rating [2, 15]: 60
Johnsongrass plant response rating [2, 16]: 65
Plant response rating, Johnsongrass [2, 17]: 70
Plant response rating, Johnsongrass [2, 18]: 75
Plant response rating, Johnsongrass [2, 19]: 0
Plant response rating, Johnsongrass [2, 20]: 0
Johnsongrass plant response rating [2, 21]: 0
Johnsongrass plant response rating [2, 22]: 0
Ryegrass, Italian plant response rating [3, 15]: 10
Ryegrass, Italian plant response rating [3, 16]: 55
Plant response rating, Ryegrass, Italian [3, 17]: 98
Plant response rating, Ryegrass, Italian [3, 18]: 100
Plant response rating, Ryegrass, Italian [3, 19]: 60
Plant response rating, Ryegrass, Italian [3, 20]: 100
Ryegrass, Italian plant response rating [3, 21]: 0
Ryegrass, Italian plant response rating [3, 22]: 20
Wheat plant response rating [4, 15]: 0
Wheat plant response rating [4, 16]: 35
Plant response rating, Wheat [4, 17]: 40
Plant response rating, Wheat [4, 18]: 80
Plant response rating, Wheat [4, 19]: 0
Plant response rating, Wheat [4, 20]: 0
Wheat plant response rating [4, 22]: 0
Morningglory plant response rating [5, 15]: 0
Morningglory plant response rating [5, 16]: 0
Plant response rating, Morningglory [5, 17]: 0
Plant response rating, Morningglory [5, 18]: 0
Plant response rating, Morningglory [5, 19]: 0
Plant response rating, Morningglory [5, 20]: 0
Morningglory plant response rating [5, 21]: 0
Morningglory plant response rating [5, 22]: 0
Cocklebur plant response rating ([6]; postemergence, 0-100 scale): 0
Plant response rating, Cocklebur [6, 23]: 0
Plant response rating, Cocklebur [6, 17]: 0
Plant response rating, Cocklebur [6, 18]: 0
Plant response rating, Cocklebur [6, 24]: 0
Plant response rating, Cocklebur [6, 19]: 0
Plant response rating, Cocklebur [6, 20]: 0
Cocklebur plant response rating ([6]; Preemergence, scale 0 to 100): 0
Lambsquarters plant response rating [7, 15]: 0
Lambsquarters plant response rating [7, 16]: 0
Plant response rating, Lambsquarters [7, 17]: 0
Plant response rating, Lambsquarters [7, 18]: 0
Surinam Grass plant response rating [8, 15]: 65
Surinam Grass plant response rating [8, 16]: 75
Plant response rating, Surinam Grass [8, 17]: 80
Plant response rating, Surinam Grass [8, 18]: 95
Plant response rating, Surinam Grass [8, 19]: 15
Plant response rating, Surinam Grass [8, 20]: 35
Surinam Grass plant response rating [8, 21]: 0
Surinam Grass plant response rating [8, 22]: 0
Plant response rating, Sunflower ([9]; 31 g ai/ha, scale 0 to 100 (0 no effect, 100 complete control)): 0
Plant response rating, Sunflower ([9]; 62 g ai/ha, 0 to 100 scale, 0 no effect, 100 complete control): 0
Sunflower plant response rating ([9]; 8 g ai/ha, scale 0 to 100): 0
Sunflower plant response rating ([9]; 16 g ai/ha, scale 0 to 100): 0
Soybean plant response rating ([10]; 8 g ai/ha): 0
Soybean plant response rating ([10]; 16 g ai/ha): 0
Plant response rating, Soybean ([10]; 31 g ai/ha, scale 0 to 100): 0
Plant response rating, Soybean ([10]; 62 g ai/ha, scale 0 to 100, 0 no effect, 100 complete control): 20
Kochia plant response rating ([11]; 8 g ai/ha): 0
Kochia plant response rating ([11]; 16 g ai/ha): 0
Plant response rating, Kochia [11, 17]: 95
Plant response rating, Kochia [11, 18]: 98
Bermudagrass plant response rating ([12]; postemergence, 0-100 scale): 20
Plant response rating, Bermudagrass [12, 23]: 65
Plant response rating, Bermudagrass [12, 17]: 95
Plant response rating, Bermudagrass [12, 18]: 98
Bermudagrass plant response rating [12, 25]: 0
Plant response rating, Bermudagrass [12, 24]: 0
Plant response rating, Bermudagrass [12, 19]: 0
Plant response rating, Bermudagrass [12, 20]: 0
Goosegrass plant response rating [13, 15]: 60
Goosegrass plant response rating [13, 16]: 70
Plant response rating, Goosegrass [13, 17]: 75
Plant response rating, Goosegrass [13, 18]: 90
Plant response rating, Goosegrass [13, 19]: 0
Plant response rating, Goosegrass [13, 20]: 0
Goosegrass plant response rating [13, 21]: 0
Goosegrass plant response rating [13, 22]: 0
Velvetleaf plant response rating [14, 15]: 0
Velvetleaf plant response rating [14, 16]: 0
Plant response rating, Velvetleaf [14, 17]: 0
Plant response rating, Velvetleaf [14, 18]: 0
Plant response rating, Velvetleaf [14, 19]: 0
Plant response rating, Velvetleaf [14, 20]: 0
Velvetleaf plant response rating [14, 21]: 0
Velvetleaf plant response rating [14, 22]: 0

CCc1cc(-c2ccc(Cl)c(Cl)c2)nn1-c1c(O)cnn(C)c1=O [Compound 20]
Ragweed plant response rating [1, 15]: 0
Plant response rating, Ragweed [1, 23]: 0
Plant response rating, Ragweed [1, 26]: 0
Plant response rating, Ragweed [1, 27]: 0
Plant response rating, Ragweed [1, 28]: 0
Ragweed plant response rating [1, 21]: 0
Johnsongrass plant response rating [2, 15]: 30
Plant response rating, Johnsongrass [2, 23]: 75
Plant response rating, Johnsongrass [2, 26]: 100
Plant response rating, Johnsongrass [2, 27]: 100
Plant response rating, Johnsongrass [2, 24]: 50
Plant response rating, Johnsongrass [2, 29]: 75
Plant response rating, Johnsongrass [2, 28]: 95
Johnsongrass plant response rating [2, 21]: 0
Ryegrass, Italian plant response rating [3, 15]: 40
Plant response rating, Ryegrass, Italian [3, 23]: 55
Plant response rating, Ryegrass, Italian [3, 26]: 90
Plant response rating, Ryegrass, Italian [3, 27]: 90
Plant response rating, Ryegrass, Italian [3, 24]: 35
Plant response rating, Ryegrass, Italian [3, 29]: 40
Plant response rating, Ryegrass, Italian [3, 28]: 90
Ryegrass, Italian plant response rating [3, 21]: 30
Wheat plant response rating [4, 15]: 0
Plant response rating, Wheat [4, 23]: 20
Plant response rating, Wheat [4, 26]: 20
Plant response rating, Wheat [4, 27]: 60
Plant response rating, Wheat [4, 24]: 0
Plant response rating, Wheat [4, 29]: 0
Plant response rating, Wheat [4, 28]: 0
Wheat plant response rating [4, 21]: 0
Morningglory plant response rating [5, 15]: 0
Plant response rating, Morningglory [5, 23]: 0
Plant response rating, Morningglory [5, 26]: 0
Plant response rating, Morningglory [5, 27]: 0
Plant response rating, Morningglory [5, 24]: 0
Plant response rating, Morningglory [5, 29]: 0
Plant response rating, Morningglory [5, 28]: 0
Morningglory plant response rating [5, 21]: 0
Cocklebur plant response rating ([6]; postemergence, 0-100 scale): 0
Plant response rating, Cocklebur [6, 23]: 0
Plant response rating, Cocklebur [6, 26]: 0
Plant response rating, Cocklebur [6, 27]: 0
Plant response rating, Cocklebur [6, 24]: 0
Plant response rating, Cocklebur [6, 29]: 0
Plant response rating, Cocklebur [6, 28]: 0
Cocklebur plant response rating ([6]; Preemergence, scale 0 to 100): 0
Lambsquarters plant response rating [7, 15]: 0
Plant response rating, Lambsquarters [7, 23]: 0
Plant response rating, Lambsquarters [7, 26]: 0
Plant response rating, Lambsquarters [7, 27]: 40
Plant response rating, Lambsquarters [7, 24]: 20
Plant response rating, Lambsquarters [7, 29]: 100
Plant response rating, Lambsquarters [7, 28]: 100
Lambsquarters plant response rating [7, 21]: 0
Surinam Grass plant response rating [8, 15]: 60
Plant response rating, Surinam Grass [8, 23]: 90
Plant response rating, Surinam Grass [8, 26]: 90
Plant response rating, Surinam Grass [8, 27]: 100
Plant response rating, Surinam Grass [8, 24]: 20
Plant response rating, Surinam Grass [8, 29]: 50
Plant response rating, Surinam Grass [8, 28]: 100
Surinam Grass plant response rating [8, 21]: 0
Plant response rating, Sunflower ([9]; 16 g ai/ha, scale 0 to 100 (0 no effect, 100 complete control)): 0
Plant response rating, Sunflower ([9]; 31 g ai/ha, 0 to 100 scale, 0 no effect, 100 complete control): 30
Plant response rating, Sunflower ([9]; 62 g ai/ha, scale 0 to 100): 40
Sunflower plant response rating ([9]; 8 g ai/ha, scale 0 to 100): 0
Soybean plant response rating ([10]; 8 g ai/ha): 0
Plant response rating, Soybean ([10]; 16 g ai/ha, scale 0 to 100): 0
Plant response rating, Soybean ([10]; 31 g ai/ha, scale 0 to 100, 0 no effect, 100 complete control): 0
Plant response rating, Soybean ([10]; 62 g ai/ha, scale 0 to 100): 0
Kochia plant response rating ([11]; 8 g ai/ha): 0
Plant response rating, Kochia [11, 23]: 0
Plant response rating, Kochia [11, 26]: 0
Plant response rating, Kochia [11, 27]: 0
Plant response rating, Kochia [11, 24]: 0
Plant response rating, Kochia [11, 29]: 0
Plant response rating, Kochia [11, 28]: 0
Bermudagrass plant response rating ([12]; postemergence, 0-100 scale): 0
Plant response rating, Bermudagrass [12, 23]: 0
Plant response rating, Bermudagrass [12, 26]: 0
Plant response rating, Bermudagrass [12, 27]: 0
Bermudagrass plant response rating [12, 25]: 0
Plant response rating, Bermudagrass [12, 24]: 0
Plant response rating, Bermudagrass [12, 29]: 0
Plant response rating, Bermudagrass [12, 28]: 70
Goosegrass plant response rating [13, 15]: 5
Plant response rating, Goosegrass [13, 23]: 20
Plant response rating, Goosegrass [13, 26]: 65
Plant response rating, Goosegrass [13, 27]: 80
Plant response rating, Goosegrass [13, 24]: 0
Plant response rating, Goosegrass [13, 28]: 70
Goosegrass plant response rating [13, 21]: 0
Velvetleaf plant response rating [14, 15]: 0
Plant response rating, Velvetleaf [14, 23]: 0
Plant response rating, Velvetleaf [14, 26]: 0
Plant response rating, Velvetleaf [14, 27]: 0
Plant response rating, Velvetleaf [14, 24]: 0
Plant response rating, Velvetleaf [14, 29]: 0
Plant response rating, Velvetleaf [14, 28]: 0
Velvetleaf plant response rating [14, 21]: 0

Reference: patent publication US20100267561A1, “HERBICIDAL PYRIDAZINONE DERIVATIVES” (priority 2007, published 2010)
